One test addresses human GPR55 (Homo sapiens, UniProt Q9Y2T6). Nature of the test: β-arrestin recruitment assay (PathHunter), CHO cells expressing GPR55. To be noted: for inhibition at 10 µM: CHO; for IC50: antagonist mode vs. LPI (1 µM); for functional property at GPR55 (agonist/antagonist): in words; for agonist effect on β-arrestin recruitment at GPR55: test compound 10 µM, related to effect of LPI 1 µM = 100%. (In general: Recruitment of arrestin is a read-out of receptor activation apart from second messengers.)

Test [1] has as its target T1, human GPR18 (Homo sapiens, UniProt Q14330).
T1 sequence (Q14330 1-331): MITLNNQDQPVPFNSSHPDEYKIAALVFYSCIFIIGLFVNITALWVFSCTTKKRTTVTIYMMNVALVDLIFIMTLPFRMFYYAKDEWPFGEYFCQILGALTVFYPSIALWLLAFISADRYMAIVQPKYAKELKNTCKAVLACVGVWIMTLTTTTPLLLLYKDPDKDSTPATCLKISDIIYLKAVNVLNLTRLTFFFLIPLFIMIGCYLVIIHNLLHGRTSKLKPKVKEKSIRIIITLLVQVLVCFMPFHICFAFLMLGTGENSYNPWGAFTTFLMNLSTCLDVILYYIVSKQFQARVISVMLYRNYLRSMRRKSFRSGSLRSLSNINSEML
Description: cell-based. To be noted: for inhibition at 10 µM: CHO, read-out: % inhibition of Δ9-THC (10 µM)-induced β-arrestin recruitment at GPR18, test compound at 10 µM; for IC50: GPR18 IC50, β-arrestin recruitment, antagonist mode vs. Δ9-THC (10 µM).

For test [2], the target named is T1, human GPR18. To be noted: for functional property at GPR18 (agonist/antagonist): in words; for agonist effect on β-arrestin recruitment at GPR18: test compound 10 µM, related to effect of Δ9-THC 10 µM = 100%.
For test [3], the target named is T2, human CB2 receptor (Homo sapiens, UniProt P34972). Nature of the test: cAMP accumulation assay, CHO cells expressing CB2. Type of test: cell-based. To be noted: for functional property at CB2 (agonist/antagonist): in words, standard ligands partly from the literature. For orientation: Changes in cAMP serve as a functional read-out for many G protein-coupled receptors.

Test [4] has as its target T3, human CB1 receptor (Homo sapiens, UniProt P21554). Description: cAMP accumulation assay, CHO cells expressing CB1. The test is classed as cell-based.
In test [5] the target is T2, human CB2 receptor. Description: Radioligand binding (heterologous competition) vs. [3H]CP55,940 at CB2. To be noted: three independent experiments in duplicates.
The target of test [6] is T3, human CB1 receptor. Nature of the test: biochemical. The test is classed as binding. To be noted: membranes of CHO cells expressing human CB1; three independent experiments in duplicates; read-out: Ki CB1, heterologous competition vs. [3H]CP55,940.
Setting [7] is: read-out: % inhibition of LPI (1 µM)-induced β-arrestin recruitment at GPR55.
Where [8] appears, read: GPR55 IC50, β-arrestin recruitment.
Where [9] appears, read: read-out: % inhibition of LPI (1 µM)-induced β-arrestin recruitment at GPR55, test compound at 10 µM.
Where [10] appears, read: in words, standard ligands partly from the literature.
The mark [11] stands for this setting: membranes of CHO cells expressing human CB2, read-out: Ki CB2, heterologous competition vs. [3H]CP55,940.
Setting [12] is: at 10 µM, compared to max. effect of full agonist CP55,940 (1 µM) = 100%.

Ten compounds from paper PMC3813752 (PLoS ONE, 2013) can be followed below.

As usually defined, the EC50 is the concentration giving half of the maximal effect. For orientation: inhibition means the drop in the measured response relative to a control, in per cent. The IC50 is the concentration needed to halve the response being measured. One may read the Ki as the dissociation constant of the complex between target and ligand, obtained from inhibition or displacement.

“Also recorded” adds a separate entry of the source. Like-named read-outs stand apart in the source and are kept apart here. Marks after values point to notes of the source that are not given here.

human GPR55, sequence (Q9Y2T6 whole entry): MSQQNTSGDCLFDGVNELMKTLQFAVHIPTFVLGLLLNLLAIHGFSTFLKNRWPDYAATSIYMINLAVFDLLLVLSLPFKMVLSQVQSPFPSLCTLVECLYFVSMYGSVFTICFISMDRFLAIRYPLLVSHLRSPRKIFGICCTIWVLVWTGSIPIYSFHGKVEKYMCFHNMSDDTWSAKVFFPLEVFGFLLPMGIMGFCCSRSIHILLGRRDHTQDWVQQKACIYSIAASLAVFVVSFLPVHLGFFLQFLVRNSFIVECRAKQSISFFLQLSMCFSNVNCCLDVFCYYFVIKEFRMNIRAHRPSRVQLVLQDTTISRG
T3 sequence (P21554 whole entry): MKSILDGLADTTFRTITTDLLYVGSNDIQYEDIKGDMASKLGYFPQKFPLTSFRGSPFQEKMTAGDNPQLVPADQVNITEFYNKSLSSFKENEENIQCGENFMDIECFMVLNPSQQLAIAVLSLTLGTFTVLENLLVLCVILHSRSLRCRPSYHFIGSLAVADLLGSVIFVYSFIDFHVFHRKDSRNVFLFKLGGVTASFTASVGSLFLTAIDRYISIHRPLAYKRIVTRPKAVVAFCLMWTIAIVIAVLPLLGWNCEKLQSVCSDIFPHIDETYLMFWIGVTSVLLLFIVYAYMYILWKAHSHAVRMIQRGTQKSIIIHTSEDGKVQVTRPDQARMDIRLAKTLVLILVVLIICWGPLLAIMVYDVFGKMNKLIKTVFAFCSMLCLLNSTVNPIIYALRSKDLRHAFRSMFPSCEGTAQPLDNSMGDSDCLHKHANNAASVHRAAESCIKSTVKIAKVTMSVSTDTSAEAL
T2 sequence (P34972 whole entry): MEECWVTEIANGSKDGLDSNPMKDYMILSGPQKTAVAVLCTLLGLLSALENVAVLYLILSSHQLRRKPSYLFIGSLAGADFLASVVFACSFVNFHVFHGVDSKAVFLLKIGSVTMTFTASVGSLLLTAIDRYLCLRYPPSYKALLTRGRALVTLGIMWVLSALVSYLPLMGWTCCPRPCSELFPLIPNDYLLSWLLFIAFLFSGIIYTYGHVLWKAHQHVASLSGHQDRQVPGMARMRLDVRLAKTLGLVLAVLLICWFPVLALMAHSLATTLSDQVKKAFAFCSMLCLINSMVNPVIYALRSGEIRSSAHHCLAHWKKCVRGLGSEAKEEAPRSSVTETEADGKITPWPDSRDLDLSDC

Consider `CCCCCCC(C)(C)c1ccc(C2CC(O)CCC2CCCO)c(O)c1` (single isomer, unassigned; (-)) [Compound 4, (-)-cis-3-[2-hydroxy-4-(1,1-dimethylheptyl)phenyl]-trans-4-(3-hydroxypropyl)cyclohexanol, reference compound], for which, on human GPR55, the concentration for a half-maximal effect (EC50) was more than 10 µM, the “functional property at GPR55 (agonist/antagonist)” value is on record as “antagonistic activity; also recorded: antagonist” and the “agonist effect on β-arrestin recruitment at GPR55” value (“agonist effect … at GPR55” below) is given as 4%. For the same compound, on human GPR55 (setting [7]), the inhibition at 10 µM came out at 93%. The same compound had an IC50 on human GPR55 (setting [8]) of 1.61 ± 0.47 µM. On human GPR18 [1], the EC50 was more than 10 µM, the inhibition at 10 µM is 188% and the 50% inhibitory concentration (IC50) worked out at 5.99 ± 1.88 µM. On human GPR18 [2], the “functional property at GPR18 (agonist/antagonist)” value is “inverse agonistic activity; also recorded: antagonist” and the “agonist effect on β-arrestin recruitment at GPR18” value (“agonist effect … at GPR18” below) turned out to be 0%. The “functional property at CB2 (agonist/antagonist)” value on human CB2 receptor [3] is listed as “agonist”. For the same compound, the “functional property at CB1 (agonist/antagonist)” value at human CB1 receptor [4] was “agonist”.
For the compound `CCCCCc1cc(O)c2c(c1)OC(C)(C)[C@@H]1CCC(C)=C[C@@H]21` [Compound 1, Δ^9-tetrahydrocannabinol, reference compound], on human GPR55, the half-maximal effective concentration (EC50) is more than 10 µM, the “functional property at GPR55 (agonist/antagonist)” value is recorded as “antagonist” and the “agonist effect … at GPR55” value amounted to 0%. In addition, the inhibition at 10 µM at human GPR55 (setting [7]) turned out to be 65%. Also, the IC50 at human GPR55 (read-out: GPR55 IC50, β-arrestin recruitment) came to 14.2 ± 5.4 µM. Moreover, at human GPR18 [1], the inhibition at 10 µM was determined as 0% and the half-inhibitory concentration (IC50) is more than 10 µM. Further, the “functional property at GPR18 (agonist/antagonist)” value at human GPR18 [2] was “agonist”. For the same compound, at human GPR18 [2] (read-out: GPR18 EC50, β-arrestin recruitment, agonist mode), the half-maximal effective concentration (EC50) stood at 4.61 ± 0.5 µM. Further, at human CB2 receptor [3], the “functional property at CB2 (agonist/antagonist)” value is “agonist”.
`Cc1c(C(=O)NN2CCCCC2)nn(-c2ccc(Cl)cc2Cl)c1-c1ccc(Cl)cc1` [Compound 5, rimonabant, reference compound]: the inhibition at 10 µM on human GPR55 (setting [7]) was found to be 0%; on human GPR18 [1] it was 94%. In addition, the IC50 against human GPR55 (setting [8]) is more than 10 µM; on human GPR18 [2] (read-out: GPR18 IC50, β-arrestin recruitment, antagonist mode vs. Δ9-THC (10 µM)) it was 10.1 ± 1.3 µM. The “functional property at GPR55 (agonist/antagonist)” value on human GPR55 is “agonist”. For the same compound, the 50% effective concentration (EC50) at human GPR55 (read-out: GPR55 EC50, β-arrestin recruitment, agonist mode) is 2.01 ± 0.66 µM; at human GPR18 [1], more than 10 µM. Further, the “functional property at GPR18 (agonist/antagonist)” value on human GPR18 [2] was “antagonist”. The “agonist effect … at GPR18” value on human GPR18 [2] is recorded as 0%. Moreover, the “functional property at CB2 (agonist/antagonist)” value on human CB2 receptor [3] is “antagonist”.
For `COc1ccc(-c2oc3cc(OC)ccc3c2C(=O)c2ccc(C#N)cc2)cc1` [Compound 6, reference compound], on human GPR55, the EC50 is more than 10 µM, the “functional property at GPR55 (agonist/antagonist)” value is “antagonist” and the “agonist effect … at GPR55” value was 0%. Moreover, the inhibition at 10 µM at human GPR55 (setting [9]) was determined as 81%. The same compound yielded an IC50 against human GPR55 (setting [8]) of 4.14 ± 1.05 µM. At human GPR18 [1], the concentration for a half-maximal effect (EC50) was more than 10 µM, the inhibition at 10 µM turned out to be 81% and half-maximal inhibition (IC50) was put at 4.97 ± 1.51 µM. Further, at human GPR18 [2], the “functional property at GPR18 (agonist/antagonist)” value was “antagonist” and the “agonist effect … at GPR18” value is given as 0%. Further, the “functional property at CB2 (agonist/antagonist)” value on human CB2 receptor [3] is reported as “antagonist”. Moreover, the “functional property at CB1 (agonist/antagonist)” value on human CB1 receptor [4] (setting [10]) is “antagonist”.
In the case of `COc1ccc(C(=O)c2c(C)n(CCN3CCOCC3)c3cc(I)ccc23)cc1` [Compound 7, reference compound], at human GPR55, the EC50 was more than 10 µM, the “functional property at GPR55 (agonist/antagonist)” value was “antagonist” and the “agonist effect … at GPR55” value is given as 22%. The inhibition at 10 µM at human GPR55 (setting [7]) was 48%. On human GPR55 (setting [8]), this compound displayed an IC50 not below 10 µM. For the same compound, at human GPR18 [1], the EC50 was more than 10 µM, the inhibition at 10 µM was 52% and the half-inhibitory concentration (IC50) was approximately 10 µM. Besides, at human GPR18 [2], the “functional property at GPR18 (agonist/antagonist)” value is on record as “antagonist” and the “agonist effect … at GPR18” value came out at 0%. Besides, the “functional property at CB2 (agonist/antagonist)” value at human CB2 receptor [3] is on record as “antagonist”. Moreover, on human CB1 receptor [4] (setting [10]), the “functional property at CB1 (agonist/antagonist)” value was “agonist”.
For `CCCc1ccc(O)c(-c2cc(CCC)ccc2O)c1` [Compound 12, tetrahydromagnolol], at human GPR55, the EC50 is more than 10 µM, the “functional property at GPR55 (agonist/antagonist)” value was “antagonist” and the “agonist effect … at GPR55” value is reported as 24%. Further, the inhibition at 10 µM on human GPR55 (setting [7]) amounted to 96%. The compound also displayed an IC50 against human GPR55 (setting [8]) of 13.2 ± 4 µM. Further, on human GPR18 [1], the EC50 is more than 10 µM, the inhibition at 10 µM is 64% and 30.9 ± 15.8 µM corresponded to half-maximal inhibition (IC50). For the same compound, on human GPR18 [2], the “functional property at GPR18 (agonist/antagonist)” value was “antagonist” and the “agonist effect … at GPR18” value is reported as 0%. For the same compound, the “functional property at CB2 (agonist/antagonist)” value on human CB2 receptor [3] is “agonist”. Moreover, on human CB1 receptor [4] (setting [10]), the “functional property at CB1 (agonist/antagonist)” value is given as “agonist”.
Regarding `CCCCCCc1ccc(O)c(-c2cc(CC)ccc2O)c1` [Compound 57], the EC50 on human GPR55 and at human GPR18 [1] was more than 10 µM each time. The values for the inhibition at 10 µM on human GPR55 (setting [9]) and at human GPR18 [1] were 0% and 113%, respectively. The half-maximal inhibitory concentration (IC50) was more than 10 µM on human GPR55 (setting [8]) and 12.5 ± 0.8 µM on human GPR18 [1]. The inhibitory constant (Ki) is 0.083 ± 0.0118 µM on human CB2 receptor [5] (Ki CB2, heterologous competition vs. [3H]CP55,940, membranes of CHO cells expressing human CB2) and 0.386 ± 0.029 µM at human CB1 receptor [6]. Besides, the “agonist effect … at GPR18” value at human GPR18 [2] turned out to be 0%.
As for `CCCCc1ccc(O)c(-c2cc(CCC)ccc2O)c1` [Compound 58], the concentration for a half-maximal effect (EC50) at human GPR55 and at human GPR18 [1] was more than 10 µM in each case. Besides, the inhibition at 10 µM on human GPR55 (setting [9]) is 44%; at human GPR18 [1], 104%. The half-maximal inhibitory concentration (IC50) on human GPR55 (setting [8]) is approximately 10 µM; against human GPR18 [1], 13.5 ± 1.7 µM. For the same compound, the “agonist effect … at GPR55” value at human GPR55 worked out at 21%. Further, the Ki was 0.468 ± 0.133 µM at human CB2 receptor [5] (setting [11]) and 3.61 ± 0.17 µM at human CB1 receptor [6]. Besides, the “agonist effect … at GPR18” value at human GPR18 [2] came to 0%.
On to `CCCc1ccc(O)c(-c2cc(C(C)(C)C)ccc2O)c1` [Compound 59], for which the EC50 on human GPR55 and on human GPR18 [1] was more than 10 µM in each case. Also, the inhibition at 10 µM on human GPR55 (setting [9]) and at human GPR18 [1] was 54% throughout. In addition, the IC50 at human GPR55 (setting [8]) and on human GPR18 [1] was approximately 10 µM each time. Also, at human GPR55, the “agonist effect … at GPR55” value is 0%. Besides, the inhibition constant Ki at human CB2 receptor [5] (setting [11]) turned out to be 0.489 ± 0.049 µM; at human CB1 receptor [6], 5.81 ± 2.67 µM. In addition, at human GPR18 [2], the “agonist effect … at GPR18” value is reported as 0%.
Consider `CCCCCCCc1ccc(O)c(-c2cc(CCC)ccc2O)c1` [Compound 62], for which the EC50 on human GPR55 and on human GPR18 [1] was more than 10 µM in each case. Further, the inhibition at 10 µM at human GPR55 (setting [9]) is 17%; at human GPR18 [1], 123%. Besides, the values for the 50% inhibitory concentration (IC50) against human GPR55 (setting [8]) and on human GPR18 [1] were more than 10 µM and 10.6 ± 0.4 µM, respectively. The “agonist effect … at GPR55” value on human GPR55 is 5%. The “agonist effect … at GPR18” value at human GPR18 [2] was 0%. The “efficacy CB2, cAMP accumulation assay” value at human CB2 receptor [3] (setting [12]) is listed as “(57%)^b”. Besides, the “efficacy CB1, cAMP accumulation assay” value on human CB1 receptor [4] (setting [12]) is listed as “(110%)^b”.
